Species on record: Rattus norvegicus
Assay: DrugMatrix - Regimen: Daily Repeat
Type: toxicity, organism-based, Sprague-Dawley
Parameters: regimen Daily Repeat, gender Male, age 6-8 weeks
Conditions: in vivo, po, route oral GAVAGE, […]; for ALKALINE PHOSPHATASE / ASPARTATE AMINOTRANSFERASE / BLOOD UREA NITROGEN / CARBON DIOXIDE / CHLORIDE / CHOLESTEROL / CREATINE PHOSPHOKINASE / CREATININE / GLUCOSE / LACTATE DEHYDROGENASE / LIPASE / PHOSPHORUS / POTASSIUM / SODIUM / TOTAL BILIRUBIN / TOTAL PROTEIN / URIC ACID / ALANINE AMINOTRANSFERASE / ALBUMIN: tissue Plasma; for BASOPHIL / EOSINOPHIL / ERYTHROCYTE COUNT / HEMATOCRIT / HEMOGLOBIN / LEUKOCYTE COUNT / LYMPHOCYTE / MEAN CORPUSCULAR HEMOGLOBIN / MEAN CORPUSCULAR HEMOGLOBIN CONCENTRATION / MEAN CORPUSCULAR VOLUME / MONOCYTE / NEUTROPHIL / PLATELET COUNT / ABSOLUTE BASOPHIL / ABSOLUTE EOSINOPHIL / ABSOLUTE LYMPHOCYTE / ABSOLUTE MONOCYTE / ABSOLUTE SEGMENTED NEUTROPHIL / NUCLEATED RED BLOOD CELLS: tissue Blood
[1] = 23 mg/kg, 120 h, dose level Low, time 5 day
[2] = 23 mg/kg, dose level High, time 28 day
[3] = 64 mg/kg, 72 h, dose level M1, time 3 day
[4] = 64 mg/kg, 120 h, dose level M1, time 5 day

Compound: CC1=C(CC(=O)O)c2cc(F)ccc2/C1=C\c1ccc([S+](C)[O-])cc1 (stereo unspecified)
- ALKALINE PHOSPHATASE [1]: 330 u/L
- ASPARTATE AMINOTRANSFERASE [1]: 79.33 u/L
- BLOOD UREA NITROGEN [1]: 14.33 mg/dL
- CARBON DIOXIDE [1]: 29.33 mmol/L
- CHLORIDE [1]: 100.67 MEQ/L
- CHOLESTEROL [1]: 85 mg/dL
- CREATINE PHOSPHOKINASE [1]: 210.67 u/L
- CREATININE [1]: 0.2 mg/dL
- GLUCOSE [1]: 156 mg/dL
- LACTATE DEHYDROGENASE [1]: 80 u/L
- LIPASE [1]: 11.67 u/L
- PHOSPHORUS [1]: 10.87 mg/dL
- POTASSIUM [1]: 5.36 MEQ/L
- SODIUM [1]: 146.07 MEQ/L
- TOTAL BILIRUBIN [1]: 0.17 mg/dL
- TOTAL PROTEIN [1]: 6.1 G/DL
- URIC ACID [1]: 0.77 mg/dL
- BASOPHIL [2]: 0.35%
- EOSINOPHIL [2]: 0.51%
- ERYTHROCYTE COUNT [2]: 8.35 x10E6/uL
- HEMATOCRIT [2]: 50.37%
- HEMOGLOBIN [2]: 16.23 G/DL
- LEUKOCYTE COUNT [2]: 13.2 x10E3/uL
- LYMPHOCYTE [2]: 85.99%
- MEAN CORPUSCULAR HEMOGLOBIN [2]: 19.47 pg
- MEAN CORPUSCULAR HEMOGLOBIN CONCENTRATION [2]: 32.25 G/DL
- MEAN CORPUSCULAR VOLUME [2]: 60.4 fL
- MONOCYTE [2]: 1.36%
- NEUTROPHIL [2]: 10.23%
- PLATELET COUNT [2]: 1228.2 x10E3/uL
- ALANINE AMINOTRANSFERASE [2]: 29 u/L
- ALBUMIN [2]: 3.94 G/DL
- ALKALINE PHOSPHATASE [2]: 227.1 u/L
- ASPARTATE AMINOTRANSFERASE [2]: 60.9 u/L
- BLOOD UREA NITROGEN [2]: 12.3 mg/dL
- CHLORIDE [2]: 106.6 MEQ/L
- CHOLESTEROL [2]: 55 mg/dL
- CREATINE PHOSPHOKINASE [2]: 162.4 u/L
- CREATININE [2]: 0.52 mg/dL
- GLUCOSE [2]: 134.2 mg/dL
- PHOSPHORUS [2]: 11.59 mg/dL
- POTASSIUM [2]: 6.38 MEQ/L
- SODIUM [2]: 153.3 MEQ/L
- TOTAL BILIRUBIN [2]: 0.22 mg/dL
- TOTAL PROTEIN [2]: 6.6 G/DL
- ABSOLUTE BASOPHIL [3]: 0 CELLS/uL
- ABSOLUTE EOSINOPHIL [3]: 0 CELLS/uL
- ABSOLUTE LYMPHOCYTE [3]: 23014.33 CELLS/uL
- ABSOLUTE MONOCYTE [3]: 921.67 CELLS/uL
- ABSOLUTE SEGMENTED NEUTROPHIL [3]: 4264 CELLS/uL
- BASOPHIL [3]: 0%
- EOSINOPHIL [3]: 0%
- ERYTHROCYTE COUNT [3]: 5.01 x10E6/uL
- HEMATOCRIT [3]: 31.37%
- HEMOGLOBIN [3]: 12.4 G/DL
- LEUKOCYTE COUNT [3]: 28.2 x10E3/uL
- LYMPHOCYTE [3]: 80.67%
- MEAN CORPUSCULAR HEMOGLOBIN [3]: 24.8 pg
- MEAN CORPUSCULAR HEMOGLOBIN CONCENTRATION [3]: 39.53 G/DL
- MEAN CORPUSCULAR VOLUME [3]: 62.6 fL
- MONOCYTE [3]: 3.33%
- NEUTROPHIL [3]: 16%
- NUCLEATED RED BLOOD CELLS [3]: 0 /100WBC
- PLATELET COUNT [3]: 1053 x10E3/uL
- ALANINE AMINOTRANSFERASE [3]: 55.67 u/L
- ALBUMIN [3]: 3.33 G/DL
- ALKALINE PHOSPHATASE [3]: 252 u/L
- ASPARTATE AMINOTRANSFERASE [3]: 68 u/L
- BLOOD UREA NITROGEN [3]: 9 mg/dL
- CARBON DIOXIDE [3]: 22.33 mmol/L
- CHLORIDE [3]: 105 MEQ/L
- CHOLESTEROL [3]: 84.33 mg/dL
- CREATINE PHOSPHOKINASE [3]: 173.33 u/L
- CREATININE [3]: 0.16 mg/dL
- GLUCOSE [3]: 162.67 mg/dL
- LACTATE DEHYDROGENASE [3]: 160.33 u/L
- LIPASE [3]: 10.33 u/L
- PHOSPHORUS [3]: 9.7 mg/dL
- POTASSIUM [3]: 6.43 MEQ/L
- SODIUM [3]: 144.3 MEQ/L
- TOTAL BILIRUBIN [3]: 0.17 mg/dL
- TOTAL PROTEIN [3]: 5.17 G/DL
- URIC ACID [3]: 1.37 mg/dL
- ABSOLUTE BASOPHIL [4]: 0 CELLS/uL
- ABSOLUTE EOSINOPHIL [4]: 0 CELLS/uL
- ABSOLUTE LYMPHOCYTE [4]: 11762.67 CELLS/uL
- ABSOLUTE MONOCYTE [4]: 305.67 CELLS/uL
- ABSOLUTE SEGMENTED NEUTROPHIL [4]: 2898.33 CELLS/uL
- BASOPHIL [4]: 0%
- EOSINOPHIL [4]: 0%
- ERYTHROCYTE COUNT [4]: 4.62 x10E6/uL
- HEMATOCRIT [4]: 30.03%
- HEMOGLOBIN [4]: 11.8 G/DL
- LEUKOCYTE COUNT [4]: 14.97 x10E3/uL
- LYMPHOCYTE [4]: 78.67%
- MEAN CORPUSCULAR HEMOGLOBIN [4]: 25.5 pg
- MEAN CORPUSCULAR HEMOGLOBIN CONCENTRATION [4]: 39.3 G/DL
- MEAN CORPUSCULAR VOLUME [4]: 64.87 fL
- MONOCYTE [4]: 2%
- NEUTROPHIL [4]: 19.33%
- NUCLEATED RED BLOOD CELLS [4]: 0 /100WBC
- PLATELET COUNT [4]: 1198 x10E3/uL
- ALANINE AMINOTRANSFERASE [4]: 48.67 u/L
- ALBUMIN [4]: 3.57 G/DL
- ALKALINE PHOSPHATASE [4]: 225.67 u/L
- ASPARTATE AMINOTRANSFERASE [4]: 64.67 u/L
- BLOOD UREA NITROGEN [4]: 11 mg/dL
- CARBON DIOXIDE [4]: 31.67 mmol/L
- CHLORIDE [4]: 101.33 MEQ/L
- CHOLESTEROL [4]: 88.33 mg/dL
- CREATINE PHOSPHOKINASE [4]: 237.33 u/L
- CREATININE [4]: 0.18 mg/dL
- GLUCOSE [4]: 174.67 mg/dL
- LACTATE DEHYDROGENASE [4]: 137.33 u/L
- LIPASE [4]: 10.67 u/L
- PHOSPHORUS [4]: 10.57 mg/dL
- POTASSIUM [4]: 5.08 MEQ/L
- SODIUM [4]: 146.77 MEQ/L
- TOTAL BILIRUBIN [4]: 0.13 mg/dL
- TOTAL PROTEIN [4]: 5.57 G/DL
- URIC ACID [4]: 0.5 mg/dL
